Data reported in patent US12319664B2, “Herbicidally active 3-phenylisoxazoline-5-carboxamides of cyclopentenylcarboxylic acid derivatives” (Bayer Aktiengesellschaft, priority 2018, dated 2025).

Key:
VIOTR = assay: Post-emergence herbicidal action against VIOTR; type: in vivo, Viola tricolor; conditions: application rate 80 g/ha, rated visually about 3 weeks after treatment
Procedure, shortened: (§1)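 Greenhouse pot test in sandy loam; plants sprayed at the one-leaf stage, 2 to 3 weeks after sowing, with WP or EC formulations as aqueous suspension/emulsion plus 0.5% additive at 600 l/ha water. Visual rating after about 3 weeks against untreated controls (100% = plants died, 0% = like control).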

VERPE = assay: Post-emergence herbicidal action against VERPE; type: in vivo, Veronica persica; conditions: application rate 80 g/ha
Procedure, shortened: as §1

SETVI = assay: Post-emergence herbicidal action against SETVI; type: in vivo, Setaria viridis; conditions: application rate 80 g/ha, rated visually after about 3 weeks
Procedure, shortened: as §1

MATIN = assay: Post-emergence herbicidal action against MATIN; type: in vivo, Matricaria inodora; conditions: application rate 80 g/ha, rated visually about 3 weeks after treatment
Experimental: [table] 2. Post-emergence herbicidal action against harmful plants and crop plant compatibility Seeds of monocotyledonous and dicotyledonous weeds and crop plants are placed in sandy loam in plastic or wood-fibre pots, covered with soil and cultivated in a greenhouse under controlled growth conditions. 2 to 3 weeks after sowing, the test plants are treated at the one-leaf stage. The compounds of the invention, formulated in the form of wettable powders (WP) or as emulsion concentrates (EC), are then sprayed onto the green parts of the plants as aqueous suspension or emulsion with addition of 0.5% additive at a water application rate of 600 l/ha (converted). After the test plants have been kept in the greenhouse under optimum growth conditions for about 3 weeks, the activity of the preparations is rated visually in comparison to untreated controls. For example, 100% activity=the plants have died, 0% activity=like control plants.

ECHCG = assay: Post-emergence herbicidal action against ECHCG; type: in vivo, Echinochloa crus-galli; conditions: application rate 80 g/ha, rated visually after about 3 weeks
Procedure, shortened: as §1

ABUTH = assay: Post-emergence herbicidal action against ABUTH; type: in vivo, Abutilon theophrasti; conditions: application rate 80 g/ha, rated visually about 3 weeks after treatment
Procedure, shortened: as §1

HORMU = assay: Post-emergence herbicidal action against HORMU; type: in vivo, Hordeum murinum; conditions: application rate 80 g/ha
Procedure, shortened: as §1

ALOMY = assay: Post-emergence herbicidal action against ALOMY; type: in vivo, Alopecurus myosuroides; conditions: application rate 80 g/ha, rated visually after about 3 weeks
Procedure, shortened: as §1

AVEFA = assay: Post-emergence herbicidal action against AVEFA; type: in vivo, Avena fatua; conditions: application rate 80 g/ha, rated visually after about 3 weeks
Procedure, shortened: as §1

AMARE = assay: Post-emergence herbicidal action against AMARE; type: in vivo, Amaranthus retroflexus; conditions: application rate 80 g/ha, rated visually about 3 weeks after treatment
Procedure, shortened: as §1

LOLRI = assay: Post-emergence herbicidal action against LOLRI; type: in vivo, Lolium rigidum; conditions: application rate 80 g/ha, rated visually after about 3 weeks
Procedure, shortened: as §1

PHBPU = assay: Post-emergence herbicidal action against PHBPU; type: in vivo, Pharbitis purpurea; conditions: application rate 80 g/ha, rated visually about 3 weeks after treatment
Procedure, shortened: as §1

STEME = assay: Post-emergence herbicidal action against STEME; type: in vivo, Stellaria media; conditions: application rate 80 g/ha, rated visually about 3 weeks after treatment
Procedure, shortened: as §1

POLCO = assay: Post-emergence herbicidal action against POLCO; type: in vivo, Polygonum convolvulus; conditions: application rate 80 g/ha, rated visually about 3 weeks after treatment
Procedure, shortened: as §1

CCOC(=O)[C@@H]1C=C[C@H](NC(=O)C2(OC)CC(c3cc(F)cc(F)c3)=NO2)C1 (stereo partly shown) [Example I-020]
90%: Herbicidal action against [%] VERPE (VERPE) | Herbicidal action against [%] SETVI (SETVI) | Herbicidal action against [%] MATIN (MATIN) | Herbicidal action against [%] ALOMY (ALOMY) | Herbicidal action against [%] LOLRI (LOLRI)
100%: Herbicidal action against [%] VIOTR (VIOTR) | Herbicidal action against [%] AVEFA (AVEFA) | Herbicidal action against [%] AMARE (AMARE)
80%: Herbicidal action against [%] ECHCG (ECHCG) | Herbicidal action against [%] ABUTH (ABUTH) | Herbicidal action against [%] HORMU (HORMU) | Herbicidal action against [%] PHBPU (PHBPU) | Herbicidal action against [%] STEME (STEME)

COCCOC(=O)[C@@H]1C=C[C@H](NC(=O)[C@@]2(C(F)(F)F)CC(c3cc(F)cc(F)c3)=NO2)C1 [Example I-076]
80%: Herbicidal action against [%] VIOTR (VIOTR) | Herbicidal action against [%] VERPE (VERPE) | Herbicidal action against [%] MATIN (MATIN) | Herbicidal action against [%] ABUTH (ABUTH) | Herbicidal action against [%] HORMU (HORMU) | Herbicidal action against [%] PHBPU (PHBPU)
90%: Herbicidal action against [%] SETVI (SETVI) | Herbicidal action against [%] ECHCG (ECHCG) | Herbicidal action against [%] POLCO (POLCO) | Herbicidal action against [%] AMARE (AMARE) | Herbicidal action against [%] STEME (STEME)
100%: Herbicidal action against [%] ALOMY (ALOMY) | Herbicidal action against [%] AVEFA (AVEFA) | Herbicidal action against [%] LOLRI (LOLRI)

COC(=O)[C@H]1C=C[C@H](NC(=O)[C@@]2(C(F)(F)F)CC(c3cc(F)cc(F)c3)=NO2)C1 [Example I-062]
100%: Herbicidal action against [%] HORMU (HORMU) | Herbicidal action against [%] ALOMY (ALOMY) | Herbicidal action against [%] AVEFA (AVEFA)
90%: Herbicidal action against [%] VERPE (VERPE) | Herbicidal action against [%] ECHCG (ECHCG) | Herbicidal action against [%] LOLRI (LOLRI)
80%: Herbicidal action against [%] VIOTR (VIOTR) | Herbicidal action against [%] SETVI (SETVI) | Herbicidal action against [%] MATIN (MATIN) | Herbicidal action against [%] ABUTH (ABUTH) | Herbicidal action against [%] POLCO (POLCO) | Herbicidal action against [%] AMARE (AMARE) | Herbicidal action against [%] PHBPU (PHBPU) | Herbicidal action against [%] STEME (STEME)

O=C(O)C1C=CC(NC(=O)C2(C3CC3)CC(c3cc(F)cc(F)c3)=NO2)C1 (stereo not shown) [Example I-094]
100%: Herbicidal action against [%] ALOMY (ALOMY)
90%: Herbicidal action against [%] VIOTR (VIOTR) | Herbicidal action against [%] VERPE (VERPE) | Herbicidal action against [%] ECHCG (ECHCG) | Herbicidal action against [%] ABUTH (ABUTH) | Herbicidal action against [%] HORMU (HORMU) | Herbicidal action against [%] AVEFA (AVEFA) | Herbicidal action against [%] POLCO (POLCO) | Herbicidal action against [%] AMARE (AMARE) | Herbicidal action against [%] LOLRI (LOLRI) | Herbicidal action against [%] PHBPU (PHBPU) | Herbicidal action against [%] STEME (STEME)
80%: Herbicidal action against [%] SETVI (SETVI) | Herbicidal action against [%] MATIN (MATIN)

COC(=O)C(NC(=O)C1C=CC(NC(=O)C2(C)CC(c3cc(F)cc(F)c3)=NO2)C1)C(C)C (mixture of isomers) [II-11]
90%: Herbicidal action against [%] VIOTR (VIOTR) | Herbicidal action against [%] VERPE (VERPE) | Herbicidal action against [%] SETVI (SETVI) | Herbicidal action against [%] MATIN (MATIN) | Herbicidal action against [%] ECHCG (ECHCG) | Herbicidal action against [%] ABUTH (ABUTH) | Herbicidal action against [%] HORMU (HORMU) | Herbicidal action against [%] ALOMY (ALOMY) | Herbicidal action against [%] AVEFA (AVEFA) | Herbicidal action against [%] POLCO (POLCO) | Herbicidal action against [%] AMARE (AMARE) | Herbicidal action against [%] LOLRI (LOLRI) | Herbicidal action against [%] PHBPU (PHBPU) | Herbicidal action against [%] STEME (STEME)

CCOCCOC(=O)[C@@H]1C=C[C@H](NC(=O)[C@@]2(C(F)(F)F)CC(c3cc(F)cc(F)c3)=NO2)C1 [Example I-077]
100%: Herbicidal action against [%] AVEFA (AVEFA)
90%: Herbicidal action against [%] VERPE (VERPE) | Herbicidal action against [%] HORMU (HORMU) | Herbicidal action against [%] ALOMY (ALOMY) | Herbicidal action against [%] LOLRI (LOLRI)
80%: Herbicidal action against [%] VIOTR (VIOTR) | Herbicidal action against [%] SETVI (SETVI) | Herbicidal action against [%] MATIN (MATIN) | Herbicidal action against [%] ECHCG (ECHCG) | Herbicidal action against [%] POLCO (POLCO) | Herbicidal action against [%] AMARE (AMARE) | Herbicidal action against [%] PHBPU (PHBPU) | Herbicidal action against [%] STEME (STEME)

CCOC(=O)[C@@H]1C=C[C@H](NC(=O)C2(C(F)(F)F)CC(c3cc(C)cc(Cl)c3)=NO2)C1 (stereo partly shown) [Example I-023]
90%: Herbicidal action against [%] VERPE (VERPE) | Herbicidal action against [%] SETVI (SETVI) | Herbicidal action against [%] MATIN (MATIN) | Herbicidal action against [%] ALOMY (ALOMY) | Herbicidal action against [%] AVEFA (AVEFA) | Herbicidal action against [%] AMARE (AMARE) | Herbicidal action against [%] LOLRI (LOLRI)
100%: Herbicidal action against [%] POLCO (POLCO)
80%: Herbicidal action against [%] VIOTR (VIOTR) | Herbicidal action against [%] ECHCG (ECHCG) | Herbicidal action against [%] ABUTH (ABUTH) | Herbicidal action against [%] HORMU (HORMU) | Herbicidal action against [%] PHBPU (PHBPU)

C[C@]1(C(=O)N[C@@H]2C=C(C(=O)O)CC2)CC(c2cc(F)cc(F)c2)=NO1 [Example V-01]
80%: Herbicidal action against [%] VERPE (VERPE) | Herbicidal action against [%] SETVI (SETVI) | Herbicidal action against [%] MATIN (MATIN) | Herbicidal action against [%] ABUTH (ABUTH) | Herbicidal action against [%] AMARE (AMARE)
100%: Herbicidal action against [%] ALOMY (ALOMY) | Herbicidal action against [%] LOLRI (LOLRI)
90%: Herbicidal action against [%] VIOTR (VIOTR) | Herbicidal action against [%] ECHCG (ECHCG) | Herbicidal action against [%] HORMU (HORMU) | Herbicidal action against [%] POLCO (POLCO) | Herbicidal action against [%] PHBPU (PHBPU) | Herbicidal action against [%] STEME (STEME)

C=CC1(C(=O)N[C@H]2C=C[C@@H](C(=O)OCC(F)F)C2)CC(c2cc(F)cc(F)c2)=NO1 (stereo partly shown) [Example I-016]
80%: Herbicidal action against [%] VIOTR (VIOTR) | Herbicidal action against [%] MATIN (MATIN)
100%: Herbicidal action against [%] ECHCG (ECHCG) | Herbicidal action against [%] ALOMY (ALOMY) | Herbicidal action against [%] LOLRI (LOLRI) | Herbicidal action against [%] STEME (STEME)
90%: Herbicidal action against [%] VERPE (VERPE) | Herbicidal action against [%] SETVI (SETVI) | Herbicidal action against [%] ABUTH (ABUTH) | Herbicidal action against [%] HORMU (HORMU) | Herbicidal action against [%] AVEFA (AVEFA) | Herbicidal action against [%] POLCO (POLCO) | Herbicidal action against [%] AMARE (AMARE)

Cc1cc(Cl)cc(C2=NOC(C(=O)N[C@H]3C=C[C@@H](C(=O)OCCCl)C3)(C(F)(F)F)C2)c1 (stereo partly shown) [Example I-028]
100%: Herbicidal action against [%] AVEFA (AVEFA) | Herbicidal action against [%] POLCO (POLCO)
90%: Herbicidal action against [%] SETVI (SETVI) | Herbicidal action against [%] ALOMY (ALOMY) | Herbicidal action against [%] AMARE (AMARE) | Herbicidal action against [%] LOLRI (LOLRI)
80%: Herbicidal action against [%] VIOTR (VIOTR) | Herbicidal action against [%] VERPE (VERPE) | Herbicidal action against [%] MATIN (MATIN) | Herbicidal action against [%] ECHCG (ECHCG) | Herbicidal action against [%] ABUTH (ABUTH) | Herbicidal action against [%] HORMU (HORMU) | Herbicidal action against [%] STEME (STEME)

C=CC1(C(=O)N[C@H]2C=C[C@@H](C(=O)OCC(F)(F)F)C2)CC(c2cc(F)cc(F)c2)=NO1 (stereo partly shown) [Example I-015]
100%: Herbicidal action against [%] ECHCG (ECHCG) | Herbicidal action against [%] HORMU (HORMU) | Herbicidal action against [%] ALOMY (ALOMY) | Herbicidal action against [%] AVEFA (AVEFA) | Herbicidal action against [%] POLCO (POLCO) | Herbicidal action against [%] AMARE (AMARE) | Herbicidal action against [%] LOLRI (LOLRI) | Herbicidal action against [%] STEME (STEME)
80%: Herbicidal action against [%] MATIN (MATIN)
90%: Herbicidal action against [%] VIOTR (VIOTR) | Herbicidal action against [%] VERPE (VERPE) | Herbicidal action against [%] SETVI (SETVI) | Herbicidal action against [%] ABUTH (ABUTH)

COC(=O)C1C=CC(NC(=O)C2(C(F)(F)F)CC(c3cc(C)cc(C)c3)=NO2)C1 (mixture of isomers) [Example I-055]
80%: Herbicidal action against [%] VERPE (VERPE) | Herbicidal action against [%] MATIN (MATIN) | Herbicidal action against [%] ABUTH (ABUTH) | Herbicidal action against [%] AVEFA (AVEFA) | Herbicidal action against [%] AMARE (AMARE)
90%: Herbicidal action against [%] VIOTR (VIOTR) | Herbicidal action against [%] SETVI (SETVI) | Herbicidal action against [%] ECHCG (ECHCG) | Herbicidal action against [%] HORMU (HORMU) | Herbicidal action against [%] ALOMY (ALOMY) | Herbicidal action against [%] POLCO (POLCO) | Herbicidal action against [%] LOLRI (LOLRI) | Herbicidal action against [%] STEME (STEME)
